Entries after “also recorded” stand apart in the source; their conditions may differ.
Legend:
ICS-induced pain = experiment: Intermittent cold stress (ICS) mouse model of fibromyalgia, von Frey test; type: in vivo, mice
Description: Mechanical hyperalgesia was assessed by applying a 0.2 mN von Frey filament to the plantar surface of both hind paws. For each paw, the filament was applied for 5 times at 30-s intervals.
To induce fibromyalgia-like symptoms, mice were treated with intermittent cold stress, which produces long-lasting (more than 2 weeks) thermal hyperalgesia and mechanical allodynia, predominantly in females. Method: Mice were placed on stainless mesh plate in a cold room at 4° C. overnight (from 4:30 pm to 10:00 am), followed by intermittent cold stress with environment temperatures alternating between 24 and 4° C. every 30 min, from 10:00 am to 4:30 pm. These procedures were repeated twice. On day 3, the mice were adapted to 24 C for 1 h before behavioral testing.
The second fibromyalgia model is developed by Ueda's group, in which mice were treated with intermittent cold stress for 2 days (Nishiyori & Ueda, 2008). Mice treated with intermittent cold stress will develop long-lasting (>2 weeks) mechanical and thermal hyperalgesia. Analgesic effect of T1-11 was tested in these mice 5 day after intermittent cold stress (ICS). […] Moreover, we found T1-11 and substance P have synergistic effect in treating the ICS-induced pain.

[1] = tested on: ASIC3-expressing muscle nociceptors; experiment: Whole-cell patch clamp of acid-induced current in ASIC3-expressing muscle nociceptors; type: cell-based, mice; settings: T1-11 10 nM; n=9
Description: To retrograde-trace muscle-afferent DRG neurons, mice were injected with 4% Fluorogold (Fluorochrome, Denver, Colo.) into the GM of both legs for 5 to 7 days, then lumbar DRG neurons were dissected and removed from both sides and placed in a tube for digestion with 1 ml DMEM containing 0.125% type 1 collagenase for 90 min and 0.25% trypsin for 20 min at 37° C. The digested DRG neurons were washed with fetal calf serum (FCS)-free DMEM or DMEM containing 10% FCS during each treatment. Fully digested DRGs were triturated and plated on poly-L-lysine-coated cover slides. Cell cultures were maintained in a 5% CO2 incubator at 37° C.
Whole-cell patch-clamp recordings of muscle-afferent neurons involved use of Axopatch MultiClamp 700B (Axon Instruments). Neurons with membrane potential >−40 mV were discarded. […]
Voltage-clamp mode was used to examine the effect of SP on acid-induced currents in ASIC3-expressing DRG neurons. A total of 40 GM and 6 non-GM DRG neurons were recorded in voltage-clamp mode with Vm held at −70 mV. […] To validate whether the modulation of SP on acid-induced current was NK1-receptor specific, acid-induced current was first recorded in a bath containing 10 μM RP67580 for 2 min as a control response. […] Acid-induced current was recorded in a bath containing both SP and genistein (30 μM; Tocris), or both SP and daidzein (30 μM; Tocris) for 3 min. […]

## OC[C@H]1O[C@@H](n2cnc3c(NCc4ccc(O)cc4)ncnc32)[C@H](O)[C@@H]1O [T1-11, N^6-(4-hydroxybenzyl)adenosine]
ICS-induced pain; T1-11 3 μg/kg alone
  analgesic effect on ICS-treated mice, T1-11 alone: did not show analgesic effect
ICS-induced pain; T1-11 3 μg/kg combined with 0.6 mg/kg SM-substance P
  analgesic effect on ICS-treated mice, combination: showed analgesic effect
ICS-induced pain; T1-11 30 ug/kg
  analgesic effect on mice treated with ICS: had analgesic effect
ICS-induced pain; i.p., 5 day after ICS
  therapeutic dose to treat the ICS-induced pain: 0.03 mg/kg
[1]
  acid-induced current in ASIC3-expressing muscle nociceptors: is enough to inhibit acid-induced current; also recorded: inhibited acid-induced current in all ASIC3-expressing muscle nociceptors

From US10117890B2, “Methods and compositions for treating pain” (Academia Sinica, priority 2012, dated 2018)
